These compounds were tested against T1, human TLR9 (Homo sapiens, UniProt Q9NR96) (assay: HEK293-Blue-hTLR-9 cells assay (SEAP reporter, ODN2006 stimulation)). Conditions: HEK293-Blue-hTLR9 cells, ODN2006, 20 hrs.
T1 sequence (Q9NR96 26-1032): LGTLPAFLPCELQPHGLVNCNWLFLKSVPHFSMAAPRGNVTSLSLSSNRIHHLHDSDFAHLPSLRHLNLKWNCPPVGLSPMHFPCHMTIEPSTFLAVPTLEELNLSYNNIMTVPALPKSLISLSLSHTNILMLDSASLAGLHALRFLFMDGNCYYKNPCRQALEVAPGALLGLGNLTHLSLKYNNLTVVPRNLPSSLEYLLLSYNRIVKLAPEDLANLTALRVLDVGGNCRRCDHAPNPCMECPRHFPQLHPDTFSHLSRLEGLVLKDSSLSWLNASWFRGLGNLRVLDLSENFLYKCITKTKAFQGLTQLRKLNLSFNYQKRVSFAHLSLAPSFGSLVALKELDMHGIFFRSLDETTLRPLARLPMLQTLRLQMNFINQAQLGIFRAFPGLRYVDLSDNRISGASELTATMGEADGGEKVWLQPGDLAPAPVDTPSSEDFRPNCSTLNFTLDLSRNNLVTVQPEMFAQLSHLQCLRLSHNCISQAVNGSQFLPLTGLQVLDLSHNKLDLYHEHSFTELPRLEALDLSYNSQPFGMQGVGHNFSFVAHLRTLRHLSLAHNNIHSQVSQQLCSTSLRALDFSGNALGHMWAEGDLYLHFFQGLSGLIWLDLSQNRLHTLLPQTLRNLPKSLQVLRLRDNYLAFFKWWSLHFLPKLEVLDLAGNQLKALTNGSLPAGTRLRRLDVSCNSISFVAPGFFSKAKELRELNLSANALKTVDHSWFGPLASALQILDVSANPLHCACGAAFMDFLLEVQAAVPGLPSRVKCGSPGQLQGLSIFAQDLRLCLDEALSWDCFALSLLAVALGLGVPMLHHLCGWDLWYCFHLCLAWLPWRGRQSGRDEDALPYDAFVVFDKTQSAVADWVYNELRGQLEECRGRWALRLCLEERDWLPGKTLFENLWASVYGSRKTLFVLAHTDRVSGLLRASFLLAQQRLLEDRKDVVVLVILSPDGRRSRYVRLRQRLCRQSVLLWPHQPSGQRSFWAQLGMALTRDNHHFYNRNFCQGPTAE
Format: cell-based
Procedure: The following tests were carried out in order to determine the activity of the compounds of this invention in HEK293-Blue-hTLR-7/8/9 cells assay.
HEK293-Blue-hTLR-9 Cells Assay:
A stable HEK293-Blue-hTLR-9 cell line was purchased from InvivoGen (Cat. #: hkb-htlr9, San Diego, Calif., USA). These cells were originally designed for studying the stimulation of human TLR9 by monitoring the activation of NF-κB. A SEAP (secreted embryonic alkaline phosphatase) reporter gene was placed under the control of the IFN-β minimal promoter fused to five NF-κB and AP-1-binding sites. The SEAP was induced by activating NF-κB and AP-1 via stimulating HEK-Blue hTLR9 cells with TLR9 ligands. Therefore the reporter expression was declined by TLR9 antagonist under the stimulation of a ligand, such as ODN2006 (Cat. #: tlr1-2006-1, Invivogen, San Diego, Calif., USA), for incubation of 20 hrs. The cell culture supernatant SEAP reporter activity was determined using QUANTI-Blue™ kit (Cat. #: rep-qb1, Invivogen, San Diego, Calif., USA) at a wavelength of 640 nm, a detection medium that turns purple or blue in the presence of alkaline phosphatase.
HEK293-Blue-hTLR9 cells were incubated at a density of 250,000˜450,000 cells/mL in a volume of 170 μL in a 96-well plate in Dulbecco's Modified Eagle's medium (DMEM) containing 4.5 g/L glucose, 50 U/mL penicillin, […], 2 mM L-glutamine, 10% (v/v) heat-inactivated fetal bovine serum with addition of 20 μL test compound in a serial dilution in the presence of final DMSO at 1% and 10 μL of 20 uM ODN2006 in above DMEM, perform incubation under 37° C. in a CO2 incubator for 20 hrs. Then 20 μL of the supernatant from each well was incubated with 180 μL Quanti-blue substrate solution at 37° C. for 2 hrs and the absorbance was read at 620˜655 nm using a spectrophotometer. The signalling pathway that TLR9 activation leads to downstream NF-κB activation has been widely accepted, and therefore similar reporter assay was modified for evaluating TLR9 antagonist.

| IC50 [nM] | Compound |
| --- | --- |
| 70 | C[C@H]1C[C@@H](N2CCc3cc(N4CCNCC4)ccc3C2)CN(c2ccc(C#N)c3ncccc23)C1 (relative stereo) [Example 24, 5-[cis-3-methyl-5-(6-piperazin-1-yl-3,4-dihydro-1H-isoquinolin-2-yl)-1-piperidyl]quinoline-8-carbonitrile] |
| 55 | C[C@H]1C[C@@H](NCc2ccc(N3CCNCC3)cc2)CN(c2ccc(C#N)c3ncccc23)C1 [Example 1, 5-[(3S,5R)-3-methyl-5-[(4-piperazin-1-ylphenyl)methylamino]1-piperidyl]quinoline-8-carbonitrile] |
| 75 | C[C@H]1C[C@@H](NCc2ccc(C3CCNCC3)cc2)CN(c2ccc(C#N)c3ncccc23)C1 [Example 2, 5-[(3S,5R)-3-methyl-5-[[4-(4-piperidyl)phenyl]methylamino]-1-piperidyl]quinoline-8-carbonitrile] |
| 77 | C[C@H]1C[C@@H](NCc2ccc(N3CCNCC3)cc2)CN(c2ccc(C#N)c3nccnc23)C1 [Example 3, 8-[(3S,5R)-3-methyl-5-[(4-piperazin-1-ylphenyl)methylamino]-1-piperidyl]quinoxaline-5-carbonitrile] |
| 94 | C[C@H]1C[C@@H](NCc2ccc(N3CCNCC3)cc2F)CN(c2ccc(C#N)c3ncccc23)C1 [Example 4, 5-[(3R,58)-3-[(2-fluoro-4-piperazin-1-yl-phenyl)methylamino]-5-methyl-1-piperidyl]quinoline-8-carbonitrile] |
| 68 | C[C@H]1C[C@@H](NCc2ccc(N3CCNCC3)cn2)CN(c2ccc(C#N)c3ncccc23)C1 [Example 5, 5-[(3S,5R)-3-methyl-5-[(5-piperazin-1-yl-2-pyridyl)methylamino]-1-piperidyl]quinoline-8-carbonitrile] |
| 70 | C[C@H]1C[C@@H](NCc2cccc(N3CCN(C)CC3)c2)CN(c2ccc(C#N)c3ncccc23)C1 [Example 6, 5-[(3S,5R)-3-methyl-5-[[3-(4-methylpiperazin-1-yl)phenyl]methylamino]-1-piperidyl]quinoline-8-carbonitrile] |
| 69 | C[C@H]1C[C@@H](NCc2ccc(N3CCN(C)CC3)cc2)CN(c2ccc(C#N)c3ncccc23)C1 [Example 7, 5-[(3S,5R)-3-methyl-5-[[4-(4-methylpiperazin-1-yl)phenyl]methylamino]-1-piperidyl]quinoline-8-carbonitrile] |
| 88 | C[C@H]1C[C@@H](NCc2cccc(N3CCNCC3)c2)CN(c2ccc(C#N)c3ncccc23)C1 [Example 8, 5-[(3S,5R)-3-methyl-5-[(3-piperazin-1-ylphenyl)methylamino]-1-piperidyl]quinoline-8-carbonitrile] |
| 95 | C[C@H]1C[C@@H](N(C)Cc2ccc(N3CCNCC3)cc2)CN(c2ccc(C#N)c3ncccc23)C1 [Example 9, 5-[(3S,5R)-3-methyl-5-[methyl-[(4-piperazin-1-ylphenyl)methyl]amino]-1-piperidyl]quinoline-8-carbonitrile] |
| 68 | C[C@H]1C[C@@H](NCc2ccc(N3CCNCC3)nc2)CN(c2ccc(C#N)c3ncccc23)C1 [Example 10] |
| 82 | C[C@H]1C[C@@H](NCc2ccc3c(c2)CCNC3)CN(c2ccc(C#N)c3ncccc23)C1 [Example 11, 5-[(3S,5R)-3-methyl-5-(1,2,3,4-tetrahydroisoquinolin-6-ylmethylamino)-1-piperidyl]quinoline-8-carbonitrile] |
| 73 | C[C@H]1C[C@@H](N2Cc3ccc(N4CCNCC4)cc3C2)CN(c2ccc(C#N)c3ncccc23)C1 [Example 12, 5-[(3S,5R)-3-methyl-5-(5-piperazin-1-ylisoindolin-2-yl)-1-piperidyl]quinoline-8-carbonitrile] |
| 163 | C[C@H]1C[C@@H](NCc2ccc(N3CCC(N)C3)cc2)CN(c2ccc(C#N)c3ncccc23)C1 (stereo partly drawn) [Example 13, 5-[(3R,5S)-3-[[4-(3-aminopyrrolidin-1-yl)phenyl]methylamino]-5-methyl-1-piperidyl]quinoline-8-carbonitrile] |
| 126 | Cc1cc(-c2ccc(CN[C@@H]3C[C@H](C)CN(c4ccc(C#N)c5ncccc45)C3)cc2)cc(C)n1 [Example 15, 5-[(3R,5S)-3-[[4-(2,6-dimethyl-4-pyridyl)phenyl]methylamino]-5-methyl-1-piperidyl]quinoline-8-carbonitrile] |
| 77 | C[C@H]1C[C@@H](NCc2cnc(N3CCN(C)CC3)nc2)CN(c2ccc(C#N)c3ncccc23)C1 [Example 16, 5-[(3S,5R)-3-methyl-5-[[2-(4-methylpiperazin-1-yl)pyrimidin-5-yl]methylamino]-1-piperidyl]quinoline-8-carbonitrile] |
| 60 | C[C@H]1C[C@@H](NCc2cnc(N3CCNCC3)nc2)CN(c2ccc(C#N)c3ncccc23)C1 [Example 17, 5-[(3S,5R)-3-methyl-5-[(2-piperazin-1-ylpyrimidin-5-yl)methylamino]-1-piperidyl]quinoline-8-carbonitrile] |
| 116 | C[C@H]1C[C@@H](NCc2ccc(N3CCN(C)CC3)cn2)CN(c2ccc(C#N)c3ncsc23)C1 [Example 18, 7-[(3S,5R)-3-methyl-5-[[5-(4-methylpiperazin-1-yl)-2-pyridyl]methylamino]-1-piperidyl]-1,3-benzothiazole-4-carbonitrile] |
| 94 | C[C@H]1C[C@@H](NCc2ccc(N3CCNCC3)cc2)CN(c2ccc(C#N)n3nccc23)C1 [Example 21, 4-[(3S,5R)-3-methyl-5-[(4-piperazin-1-ylphenyl)methylamino]-1-piperidyl]pyrazolo[1,5-a]pyridine-7-carbonitrile] |
| 183 | C[C@H]1C[C@@H](NCc2ccc(N3CCNCC3)cc2)CN(c2ccc(Cl)c3ncccc23)C1 [Example 22, (3R,5S)-1-(8-chloro-5-quinolyl)-5-methyl-N-[(4-piperazin-1-ylphenyl)methyl]piperidin-3-amine] |
| 92 | C[C@H]1C[C@@H](N2Cc3cc(N4CCNCC4)cnc3C2)CN(c2ccc(C#N)c3ncccc23)C1 [Example 23, 5-[(3S,5R)-3-methyl-5-(3-piperazin-1-yl-5,7-dihydropyrrolo[3,4-b]pyridin-6-yl)-1-piperidyl]quinoline-8-carbonitrile] |
| 61 | C[C@H]1C[C@@H](NCc2ncc(N3CCNCC3)cn2)CN(c2ccc(C#N)c3ncccc23)C1 [Example 25, 5-[(3S,5R)-3-methyl-5-[(5-piperazin-1-ylpyrimidin-2-yl)methylamino]-1-piperidyl]quinoline-8-carbonitrile] |
| 55 | CC(N[C@@H]1C[C@H](C)CN(c2ccc(C#N)c3ncccc23)C1)c1ccc(N2CCNCC2)cc1 (stereo partly drawn) [Example 26, 5-[(3S,5R)-3-methyl-5-[1-(4-piperazin-1-ylphenyl)ethylamino]-1-piperidyl]quinoline-8-carbonitrile] |
| 48 | C[C@H]1C[C@@H](NCc2cnc(N3CCN[C@H](C)C3)nc2)CN(c2ccc(C#N)c3ncccc23)C1 [Example 28, 5-[(3S,5R)-3-methyl-5-[[2-[(3R)-3-methylpiperazin-1-yl]pyrimidin-5-yl]methylamino]-1-piperidyl]quinoline-8-carbonitrile] |

From US20220395496A1 (Hoffmann-La Roche Inc., priority 2019, published 2022)
